pEC50: −log10 of the molar value. No end group written: not given here.
Tests used:
HLA-A3 = HLA-A3 (Homo sapiens, UniProt P04439); assay: Assembly assay for peptide binding to MHC class I molecules; details: HLA-A3, lysate of T2-A3 cells, FIG. 2; read-out: peptide concentration required for half maximal recovery of class I MHC molecules (C50 value)
Description: The binding affinity of the synthetic peptides (Genscript, Scotch Plains, US) to HLA-A3 molecules was measured by means of the assembly assay as described (13). The assay is based on the stabilization of the class I molecule after loading of different concentrations of peptide to the TAP-deficient cell line T2-A3. Briefly, T2-A3 cells were incubated in methionine-free RPMI 1640 (Gibco BRL, Paisley, UK) with 10% dialysed FCS. Subsequently, cells were metabolically labelled with 50 μCi ^35S-methionine (Amersham, Birkeroed, Denmark). […] Cell nuclei were removed by ultracentrifugation. The supernatant of T2-A3 cells was heated for 5 min at 45° C. in order to reduce background signals by preferentially destabilizing empty HLA-A3. The samples were precleared by addition of Pansorbin (Calbiochem, Darmstadt, Germany) and left on rotation overnight. Stably folded HLA molecules were immune-precipitated using the HLA class I-specific, conformation-dependent mAb W6/32. A-Sepharose beads were added to collect the folded MHC complexes and separated by isoelectric focusing gel electropheresis. MHC heavy chains were quantified using the ImageGauge Phosphorimager program (FUJI Photo Film). The intensity of the band is directly related to the amount of peptide-bound class I MHC complex recovered during the assay. Subsequently, the extent of stabilization of HLA-A3 is directly related to the binding affinity of the added peptide. The C50-value was calculated for each peptide as the peptide concentration sufficient for half maximal stabilization.

[1] = tested on: peptide epitope-specific INF-γ releasing effector cells; assay: IFN-γ ELISPOT assay on in vitro stimulated PBL/PBMC; format: cell-based, human; details: for specific T-cell responses among PBMC: HLA-A3+ healthy controls (HD); for specific T-cell responses among PBL: HLA-A3+ renal cell carcinoma (RCC) patients
Description: Peripheral blood lymphocytes (PBL) from HLA-A3^+ cancer patients or peripheral blood mononuclear cells (PBMC) from healthy controls were obtained from the University Hospital Herlev, Denmark. Cells were cryopreserved in FCS with 10% DMSO. Tissue typing was conducted at the Department of Clinical Immunology, The State Hospital, Copenhagen, Denmark. Informed consent was obtained from the patients before any of these measures.
To extend the sensitivity of the ELISPOT assay, PBL were stimulated once before analysis. At day 0, PBL were thawed and plated in 24-well plates (Nunc, Roskilde, Denmark) in X-Vivo medium (Cambrex Bio Science Copenhagen, Vallensbaek Strand, Denmark) with 5% heat-inactivated human serum in the presence of 10 μM peptide (GenScript, Scotch Plains, US). The following day 20 U/ml IL-2 (PeproTech, London, UK) was added to the cultures. The cultured cells were tested for reactivity in the ELISPOT on day 8.
The ELISPOT assay was used to quantify peptide epitope-specific INF-γ releasing effector cells as described previously (WO 2005/049073, Example 1.2). Briefly, nitrocellulose bottomed 96-well plates (MultiScreen MAIP N45, Millipore, Hedehusene, Denmark) were coated with anti-IFN-γ antibody (1-D1K, Mabtech, Nacka, Sweden). The wells were washed, blocked with X-vivo medium before adding 10^4 stimulator T2-A3 cells (with or without 10 μM peptide; Rho1L2: RLGLQVRKNK; Rho1: RAGLQVRKNK (GenScript, Scotch Plains, US)) and effector cells at different concentrations. The plates were incubated overnight. The following day, medium was discarded and the wells were washed prior to addition of biotinylated secondary antibody (7-B6-1-Biotin, Mabtech, Nacka, Sweden). The plates were incubated for 2 hrs, washed and Avidin-enzyme conjugate (AP-Avidin, Calbiochem, Life Technologies, Inc., Roskilde, Denmark) was added to each well. Plates were incubated at RT for 1 hr before the enzyme substrate NBT/BCIP (Gibco Life Technology, Taastrup, Denmark) was added to each well and incubated at RT for 5-10 min. The reaction was terminated with tap-water upon the emergency of dark purple spots. The spots were counted using the ImmunoSpot® Series 2.0 Analyzer (CTL Analyzers, LLC, Cleveland, US) and the peptide specific CTL frequency could be calculated from the numbers of spot-forming cells. The number of antigen-specific spots was calculated by subtracting the mean number of spots of the control wells from the mean number of spots in the positive wells; responses with a p-value<0.05 (Student t-test for unpaired samples) were considered as positive. The definition is in respect with the CIMT Monitoring Panel inter-laboratory testing project (www.c-imt.org).

T2-A3 cells = assay: 51Cr-release cytotoxicity assay, peptide-pulsed T2-A3 target cells; format: cell-based, human; details: for lysis of peptide-pulsed T2-A3 cells by CTL clone 9: FIG. 4b; for lysis of peptide-pulsed T2-A3 cells by Rho1L2-stimulated CTL bulk cultures: bulk culture from MM patient after four restimulations, FIG. 4a, unpulsed cells not lysed
Description: (§1) PBL from a melanoma (MM) patient were stimulated with irradiated (20 Gy) autologous Rho1L2-loaded DC (PBL:DC ratio=3×10^6:3×10^5). The following day 120 U/ml IL-2 (PeproTech, London, UK) was added. Stimulation of the cultures were carried out every 10 days with Rho1L2-loaded irradiated autologous DC (2×) followed by Rho1L2-loaded irradiated autologous PBL (3×). Hundred and twenty U/ml IL-2 (PeproTech, London, UK) was added after each stimulation. After one month growing cultures were tested for specificity for Rho1L2.
(§2) PBL from a specific culture were cloned by limiting dilution in the presence of cloning mix containing 10^6/ml irradiated (20 Gy) lymphocytes from three healthy donors in X-vivo with 5% heat-inactivated human serum, 25 mM HEPES buffer (GibcoBRL, Paisley, UK), and 120 U/ml IL-2 (PeproTech, London, UK). The plates were incubated at 37° C./5% CO2. Every 3-4 days 50 μl fresh media were added containing IL-2 to a final concentration of 120 U/ml. Growing clones were expanded using cloning mix cells (5×10^4 cells/well) and IL-2. After expansion the clones were tested for specificity and cytotoxic potential in a standard ^51Cr-release assay.
Conventional ^51Cr-release assays for CTL-mediated cytotoxicity were carried out as described elsewhere (Andersen et al., (1999) J Immunol 163:3812-3818). Target cells were T2-A3 cells, the HLA-A3^+ breast cancer cell line BT-20, the HLA-A3^+ colon cancer cell line HT-29, the HLA-A3^+ head and neck cancer cell line CRL-2095 (all available at the American Type Culture Collection (ATCC)), the HLA-A3^+ melanoma cell line FM9, the HLA-A3^− melanoma cell line FM82, and the HLA-A3^+ melanoma cell line FM3 (Kirkin et al., (1995) Cancer Immunol Immunother 41: 71-81), with or without added HLA specific mAb W6/32 (Barnstable et al., (1978) Cell 14: 9-20) (2 μg/100 μl) (Schmidt et al., (2003) Blood 102: 571-576) or the HLA-A3 specific antibody GAPA3 (Sire et al., (1988) 140: 2422-2430).

[2] = tested on: HLA-A3+ melanoma cell line FM3; assay: 51Cr-release cytotoxicity assay, FM3 target cells; format: cell-based, human; details: unlabeled T2-A3 cells pulsed with peptide, inhibitor to target ratio 20:1, FIG. 5b
Description: as §1, §2
Conventional ^51Cr-release assays for CTL-mediated cytotoxicity were carried out as described elsewhere (Andersen et al., (1999) J Immunol 163:3812-3818). […]

Chain of HLA-A3 (P04439 25-365): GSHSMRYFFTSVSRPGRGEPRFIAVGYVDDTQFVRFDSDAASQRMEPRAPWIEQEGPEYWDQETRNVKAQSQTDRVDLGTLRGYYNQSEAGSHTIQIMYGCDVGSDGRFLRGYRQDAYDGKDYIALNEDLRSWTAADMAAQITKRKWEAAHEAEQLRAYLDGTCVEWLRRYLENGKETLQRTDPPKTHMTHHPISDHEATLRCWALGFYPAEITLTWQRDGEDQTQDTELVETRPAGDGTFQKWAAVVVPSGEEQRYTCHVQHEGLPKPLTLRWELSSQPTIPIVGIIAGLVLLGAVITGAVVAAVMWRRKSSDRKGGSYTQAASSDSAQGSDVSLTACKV
Chain of HLA-A3 (P61769 21-119 partner): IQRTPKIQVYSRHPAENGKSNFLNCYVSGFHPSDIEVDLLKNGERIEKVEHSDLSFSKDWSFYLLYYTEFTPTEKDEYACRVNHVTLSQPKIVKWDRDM

Work on `CC[C@H](C)[C@H](N)C(=O)N[C@@H](CC(C)C)C(=O)N[C@@H](CCCNC(=N)N)C(=O)NCC(=O)N[C@@H](CO)C(=O)N[C@H](C(=O)N[C@@H](C)C(=O)N[C@@H](Cc1c[nH]cn1)C(=O)N[C@@H](CCCCN)C(=O)O)C(C)C` [Influenza NP265-273, ILRGSVAHK, reference compound] yielded a pEC50 (HLA-A3) of 6.52.

RAGLQVRKNK [Rho1, RAGLQVRKNK] was tested, and the “specific T-cell responses among PBMC” value [1] was “No responses were detected”, the “specific T-cell responses among PBL” value [1] was “No responses were detected” and the pEC50 (HLA-A3) was less than 4.40. For the same compound, the “lysis of peptide-pulsed T2-A3 cells by CTL clone 9” value (T2-A3 cells) was “effectively lysed” and the “lysis of peptide-pulsed T2-A3 cells by Rho1L2-stimulated CTL bulk cultures” value (T2-A3 cells) was “efficiently”.

RLGLQVRKNK [Rho1L2, RLGLQVRKNK] was tested, and the “specific T-cell responses among PBMC” value [1] was “No responses were detected”, the “patients with specific T-cell responses among PBL” value ([1]; HLA-A3+ melanoma (MM) patients, PBL stimulated once in vitro, FIG. 3) was 3 out of 10 and the “specific T-cell responses among PBL” value [1] was “No responses were detected”. The pEC50 (HLA-A3) was 5.40, the “cold target inhibition of clone 9 killing of FM3 cells” value [2] was “completely abrogated” and the “lysis of peptide-pulsed T2-A3 cells by CTL clone 9” value (T2-A3 cells) was “effectively lysed”. The “lysis of peptide-pulsed T2-A3 cells by Rho1L2-stimulated CTL bulk cultures” value (T2-A3 cells) was “efficiently”.

From patent publication US9163077B2, “RhoC-based immunotherapy” (RHOVAC APS, priority 2007, dated 2015)
